US4377574A, “Contraceptive treatment of male mammals” (The Salk Institute For Biological Studies, priority 1981, dated 1983)
Where a SMILES comes first, the peptide text is derived from it. [ ]: non-standard residue; d: D form. dPhe(4-Cl) = N[C@H](Cc1ccc(Cl)cc1)C(=O)O; NMeL = CN[C@@H](CC(C)C)C(=O)O; ΔPro = O=C(O)[C@@H]1C=CCN1

Columns and labels:
male rats = test: contraceptive treatment of male rats, 14-day daily injection; type: in vivo, rat; conditions: 14-day treatment
Source text: The peptide is used at a level effective to reduce testes and seminal vesicles weights and also to inhibit spermatogenesis after a 14-day administration to male rats. […] Prostate weights of male rats recover in 2-3 weeks and seminal vesicles weights in 4-5 weeks. It is preferred to use dosage levels in the range of from about 0.1 to about 1 milligram per rat per day, which can be administered without detrimental side effects.
(§1) Male rats (about 320 grams each) are each treated with 1 milligram of the peptide synthesized in Example I, once a day, for 14 days by injection in 0.2 ml. of corn oil. All the rats show a decrease in testes and seminal vesicles weight, spermatogenesis and plasma androgen levels.
Full recovery of testes and seminal vesicle weights and spermatogenesis ultimately occurs following cessation of the 14-day peptide administration. […] Fertility, as assessed by the ability to impregnate females, is restored in all of the rats which have not been sacrificed within 6 weeks after cessation of the injections.
as §1, with “A first group (I) of male” for “Male”, “Peptide A” for “the peptide”, “III, every day” for “I, once a day,”, “days,” for “days”, “levels. […]” for “levels.”

[1] = test system: pituitary gland of mammalians; conditions: cited from earlier work

Row | Molecule | side effects / damage (male rats) | potency as an inhibitor for the release of gonadotropins relative to the same peptide with Gly in the 6-position [1] [times]
1 | CC(=O)N1CC=C[C@H]1C(=O)N[C@H](Cc1ccc(Cl)cc1)C(=O)N[C@H](Cc1c[nH]c2ccccc12)C(=O)N[C@@H](CO)C(=O)N[C@@H](Cc1ccc(O)cc1)C(=O)N[C@H](Cc1c[nH]c2ccccc12)C(=O)N(C)[C@@H](CC(C)C)C(=O)N[C@@H](CCCNC(=N)N)C(=O)N1CCC[C@H]1C(=O)NCC(N)=O [Example I, [Ac--dehydro Pro^1, pCl--D--Phe^2,D--Trp^3,6,N^α MeLeu^7]--LRF] (Ac-[ΔPro][dPhe(4-Cl)][dW]SY[dW][NMeL]RPG-NH2) | without harmful side effects or irreversible damage | –
2 | [des His^2, D--Ala^6 ] LRF | – | 3
